According to PMC3179181 (Journal of medicinal chemistry, 2010):
Entries after “also recorded” stand apart in the source; their conditions may differ.

Tests used:
[1] = tested on: Caspase 3 and 7; experiment: Caspase 3/7 activity; type: cell-based; details: 48 hours, 10 μM, versus vehicle; for Caspase 3 and 7 activity: serum free
[2] = rat
[3] = molecular target: T1, PLD2 (Homo sapiens, UniProt O14939); experiment: cell-based
[4] = molecular target: T1, PLD2
[5] = molecular target: T2, PLD1 (Homo sapiens, UniProt Q13393); experiment: cell-based
T2 sequence (Q13393 1-1074): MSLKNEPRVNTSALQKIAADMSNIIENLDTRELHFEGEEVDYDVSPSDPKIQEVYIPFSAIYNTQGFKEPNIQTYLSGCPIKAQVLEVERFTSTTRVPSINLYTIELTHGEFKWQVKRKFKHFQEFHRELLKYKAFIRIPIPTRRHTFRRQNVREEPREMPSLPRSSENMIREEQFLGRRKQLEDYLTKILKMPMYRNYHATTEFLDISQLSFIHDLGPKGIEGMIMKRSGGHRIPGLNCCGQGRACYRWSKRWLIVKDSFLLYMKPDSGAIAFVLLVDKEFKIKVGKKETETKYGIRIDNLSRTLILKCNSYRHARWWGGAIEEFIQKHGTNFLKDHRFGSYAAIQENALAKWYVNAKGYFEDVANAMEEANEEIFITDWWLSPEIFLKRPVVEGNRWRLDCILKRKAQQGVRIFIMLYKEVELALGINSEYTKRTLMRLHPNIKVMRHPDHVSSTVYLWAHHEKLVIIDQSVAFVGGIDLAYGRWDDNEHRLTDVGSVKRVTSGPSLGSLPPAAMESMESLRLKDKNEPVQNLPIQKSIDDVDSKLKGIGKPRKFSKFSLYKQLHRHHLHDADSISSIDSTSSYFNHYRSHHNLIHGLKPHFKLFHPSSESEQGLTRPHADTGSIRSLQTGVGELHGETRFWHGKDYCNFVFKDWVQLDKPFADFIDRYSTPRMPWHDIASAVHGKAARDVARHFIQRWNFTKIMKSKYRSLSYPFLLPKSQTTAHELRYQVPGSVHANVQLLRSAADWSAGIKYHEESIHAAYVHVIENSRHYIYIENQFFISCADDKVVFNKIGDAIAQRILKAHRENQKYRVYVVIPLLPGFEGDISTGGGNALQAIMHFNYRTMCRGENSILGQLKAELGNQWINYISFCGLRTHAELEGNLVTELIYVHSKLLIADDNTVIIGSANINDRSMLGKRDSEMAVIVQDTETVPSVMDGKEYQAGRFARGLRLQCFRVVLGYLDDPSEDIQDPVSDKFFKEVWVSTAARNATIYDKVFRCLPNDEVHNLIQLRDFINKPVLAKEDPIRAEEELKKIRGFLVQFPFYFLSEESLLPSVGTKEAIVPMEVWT

T1 sequence (O14939 whole entry): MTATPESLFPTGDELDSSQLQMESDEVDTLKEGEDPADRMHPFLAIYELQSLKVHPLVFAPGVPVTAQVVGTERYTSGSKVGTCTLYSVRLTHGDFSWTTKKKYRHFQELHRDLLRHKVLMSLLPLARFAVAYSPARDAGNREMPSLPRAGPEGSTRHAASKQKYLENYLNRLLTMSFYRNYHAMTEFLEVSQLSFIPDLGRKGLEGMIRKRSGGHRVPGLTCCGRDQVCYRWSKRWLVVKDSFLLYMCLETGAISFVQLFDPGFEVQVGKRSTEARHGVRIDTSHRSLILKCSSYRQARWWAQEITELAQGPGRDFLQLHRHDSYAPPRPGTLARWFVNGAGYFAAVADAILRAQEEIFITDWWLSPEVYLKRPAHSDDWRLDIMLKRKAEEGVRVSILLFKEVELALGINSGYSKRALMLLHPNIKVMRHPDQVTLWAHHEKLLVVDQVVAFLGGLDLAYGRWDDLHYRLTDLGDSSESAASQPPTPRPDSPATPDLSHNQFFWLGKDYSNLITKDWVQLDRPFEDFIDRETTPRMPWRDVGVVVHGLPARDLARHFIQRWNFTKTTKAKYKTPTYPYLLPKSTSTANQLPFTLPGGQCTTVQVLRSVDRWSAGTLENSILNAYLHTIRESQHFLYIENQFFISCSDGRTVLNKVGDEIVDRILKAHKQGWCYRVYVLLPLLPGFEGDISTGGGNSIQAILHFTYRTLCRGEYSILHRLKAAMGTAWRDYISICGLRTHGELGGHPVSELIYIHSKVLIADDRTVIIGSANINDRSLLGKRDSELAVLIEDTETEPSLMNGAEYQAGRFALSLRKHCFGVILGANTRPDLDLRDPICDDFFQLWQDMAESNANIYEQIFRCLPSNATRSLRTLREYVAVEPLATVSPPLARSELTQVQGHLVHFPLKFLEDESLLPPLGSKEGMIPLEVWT

Row | Structure (SMILES) | increase in Caspase 3 and 7 activity ([1]; 10% FBS) | Caspase 3 and 7 activity [1] | plasma protein binding (% bound) [2] | IC50 [3] | Fold PLD2 Selective [4] | IC50 [5]
1 | C[C@@H](CN1CCC(n2c(=O)[nH]c3cc(Br)ccc32)CC1)NC(=O)[C@H]1C[C@@H]1c1ccccc1 [compound 14] | marginal increase; also recorded: fairly resistant to PLD inhibitor treatment | increased Caspase 3 & 7 activity | – | – | – | –
2 | O=C(NCCN1CCC2(CC1)C(=O)NCN2c1cccc(F)c1)c1ccc2ccccc2c1 [22a, N-(2-(1-(3-fluorophenyl)-4-oxo-1,3,8-triazaspiro[4.5]decan-8-yl)ethyl)-2-naphthamide] | – | increased Caspase 3 & 7 activity | 97.9 % bound | – | – | –
3 | C[C@@H](CN1CCC2(CC1)C(=O)NCN2c1ccc(F)c(F)c1)NC(=O)c1ccc2ccccc2c1.O=C(O)C(F)(F)F [24a, (S)-N-(1-(1-(3,4-difluorophenyl)-4-oxo-1,3,8-triazaspiro[4.5]decan-8-yl)propan-2-yl)-2-naphthamide 2,2,2-trifluoroacetate] | – | – | – | 0.12 µM | 23 fold | 2.8 µM
